Reference: patent US4874752A, “Benzoquinone derivatives and production thereof” (Takeda Chemical Industries, Ltd., priority 1982, dated 1989)

Tests used:
5-lipoxygenase = biological target: T1, 5-lipoxygenase (Rattus norvegicus, UniProt P12527); test: Inhibition of 5-lipoxygenase activity in RBL-1 cells (5-HETE production); assay type: cell-based; conditions: 37° C., 20 minutes, arachidonic acid + A-23187
T1 construct: endogenous in cells; host or cells: RBL-1
T1 sequence (P12527 1-673): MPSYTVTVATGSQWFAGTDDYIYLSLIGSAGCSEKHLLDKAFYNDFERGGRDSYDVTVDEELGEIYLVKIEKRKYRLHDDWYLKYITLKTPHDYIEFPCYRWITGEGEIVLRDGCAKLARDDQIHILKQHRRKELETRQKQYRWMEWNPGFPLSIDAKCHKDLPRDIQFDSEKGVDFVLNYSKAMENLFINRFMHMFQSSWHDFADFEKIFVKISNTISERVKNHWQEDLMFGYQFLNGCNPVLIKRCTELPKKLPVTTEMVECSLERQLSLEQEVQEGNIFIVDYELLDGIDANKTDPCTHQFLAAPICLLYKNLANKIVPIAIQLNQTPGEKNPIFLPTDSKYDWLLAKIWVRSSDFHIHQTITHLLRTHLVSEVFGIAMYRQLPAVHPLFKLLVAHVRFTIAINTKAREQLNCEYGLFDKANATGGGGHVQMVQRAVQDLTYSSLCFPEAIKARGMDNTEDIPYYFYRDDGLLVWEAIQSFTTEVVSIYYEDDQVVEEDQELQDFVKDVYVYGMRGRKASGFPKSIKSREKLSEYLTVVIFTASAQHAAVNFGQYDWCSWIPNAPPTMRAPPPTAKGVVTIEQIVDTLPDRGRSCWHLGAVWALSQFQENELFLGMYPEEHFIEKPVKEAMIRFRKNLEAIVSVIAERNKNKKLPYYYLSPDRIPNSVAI
Protocol: 10^7 RBL-1 cells (rat basophilic leukemia cells) are suspended in 0.5 ml of MCM (mast cell medium), and, then, a test solution (0.5 ml of MCM, 50 μg of arachidonic acid, 10 μg of A-23187 and 1 μM or 10 μM of the quinone compound) is added. The reaction is conducted at 37° C. for 20 minutes. After completion of the reaction, 4 ml of ethanol including 1,4-dimethoxy-2-methyl-3-(3-methoxypropyl)naphthalene are added (0.5 μg/ml) are added as an internal reference. After shaking well, the mixture is allowed to stand at room temperature for 10 minutes. Then, the mixture was centrifuged (2000 r.p.m./min.) for 10 minutes and the supernatant is separated. This supernatant is concentrated under reduced pressure to about 200 μl. To the concentrate is added a high performance liquid chromatography solvent [CH3 CN(1500): CH3 OH(500): water (1100): acetic acid(2); pH 5.6 (adjusted with aqueous ammonia)] to make a total of 1 ml. A 200 μl portion of this solution is taken and 5-HETE (5-hydroxyeicosatetraenoic acid) is assayed by high performance liquid chromatography. The degree of inhibition of 5-HETE production (IE) is expressed in terms of […], where a is the peak height or area after correction with the peak of the internal reference standard in the absence of the quinone compound and b is the peak height or area after correction with the peak of the internal reference standard in the presence of the quinone compound.

collagen biosynthesis = test: Inhibitory activity of collagen biosynthesis (collagen content of the uterus, with 17β-estradiol); assay type: in vivo, SD strain rats (female, 3 weeks old); conditions: for Degree of inhibition: uterus collagen
Protocol: In accordance with the method of R. A. Salvador et al. [Arch. Biochem. Biophys. 174, 382 (1976)], 0.2 mg/kg of each test compound was intraperitoneally administered to SD strain rats (.female., 3 weeks old) once a day for 6 days. After that, the collagen content of the uterus was determined and compared with that of control experiment.
*Rats were used 3 animals as one group; initial body weights 41 ± 2- 4

[1] = 17β-estradiol + compound, 0.2 mg/kg i.p. once a day for 6 days

inhibition at 1 µM (5-lipoxygenase) [%]	inhibition at 10 µM (5-lipoxygenase) [%]	SMILES	Collagen content of uterus (collagen biosynthesis; [1]) [mg]	Degree of inhibition (collagen biosynthesis; [1]) [%]	further results
72	83.1	COC1=C(OC)C(=O)C(CCCCOc2ccc(/C=C/C(=O)O)cc2)=C(C)C1=O			
76.6	85.8	COC1=C(OC)C(=O)C(CC=C(C)COc2ccc(/C=C/C(=O)O)cc2)=C(C)C1=O			
70.1	81.5	COC1=C(C)C(=O)C(COc2ccc(CC(=O)O)cc2)=C(C)C1=O			
63.5	79.2	CC1=C(C)C(=O)C(c2nc3cc(C(C)C(=O)O)ccc3o2)=C(C)C1=O (centres unmarked)			
		C[C@]12CC[C@@H]3c4ccc(O)cc4CC[C@H]3[C@@H]1CC[C@@H]2O [17β-estradiol, reference compound]			Collagen content of uterus (collagen biosynthesis; 17β-estradiol alone): 3.45 ± 0.11 mg; Body weight of rats (collagen biosynthesis; 17β-estradiol alone, 3 rats per group, initial body weight about 41 g): 73 ± 3 g
21.8	39.1	NC1=NN(c2cccc(C(F)(F)F)c2)CC1 [BW755C, reference compound]			
35.9	39.4	CCCCCC#CCC#CCC#CCC#CCCCC(=O)O [ETYA, Eicosatetraynoic acid, reference compound]			
		COC1=C(OC)C(=O)C(/C=C/C(=O)O)=C(C)C1=O [drawing 30]	2.53 ± 0.28	51	
		COC1=C(OC)C(=O)C(/C=C/C(C)=O)=C(C)C1=O [drawing 31]	2.98 ± 0.15	26	
		COC1=C(OC)C(=O)C(COc2ccc(/C=C/C(=O)O)cc2)=C(C)C1=O [drawing 32]	2.77 ± 0.25	38	
73.9	83.5	COC1=C(OC)C(=O)C(COc2ccc(/C=C/C(=O)O)cc2)=C(C)C1=O [drawing 37]			
72.2	83.3	COC1=C(OC)C(=O)C(CC=C(C)COc2ccc(CC(=O)O)cc2)=C(C)C1=O [drawing 38]			
		COC1=C(OC)C(=O)C(CCCCCCCCCC(=O)N[C@@H](CCCNC(=N)N)C(=O)O)=C(C)C1=O [n: 9, Z:CONHArg, 10-(2,3-dimethoxy-5-methyl-1,4-benzoquinon-6-yl)decanoyl-L-arginine]	2.86 ± 0.75	33	
